{
  "source": "paper PMC9278437",
  "about": "(Journal of Enzyme Inhibition and Medicinal Chemistry, 2022)",
  "key": {"[1]": {"test_system": "hepatocellular carcinoma (HepG-2) cell line", "assay": "In vitro anti-proliferative activity, MTT assay, HepG-2", "assay_type": "cell-based, human", "details": "for IC50: Homo sapiens, HepG2, 48 h, read-out: In vitro IC50 (nM) Mean ± SD HepG-2; for In vitro IC50 (nM) Mean ± SD HepG-2: MTT, 48 h, n = 3"}, "CDK2/cyclin A2": {"molecular_target": "CDK2/cyclin A2 (Homo sapiens, UniProt P24941)", "assay": "biochemical"}, "[2]": {"test_system": "breast cancer (MCF-7) cell line", "assay": "In vitro anti-proliferative activity, MTT assay, MCF-7", "assay_type": "cell-based, human", "details": "for IC50: Homo sapiens, MCF7, 48 h, read-out: In vitro IC50 (nM) Mean ± SD MCF-7, MTT, 48 h, mean ± SD, n = 3; for In vitro IC50 (nM) Mean ± SD MCF-7: MTT, 48 h, n = 3"}, "[3]": {"test_system": "colorectal carcinoma (HCT-116) cell line", "assay": "In vitro anti-proliferative activity, MTT assay, HCT-116", "assay_type": "cell-based, human", "details": "48 h, n = 3"}},
  "data": [
    {"smiles": "N=c1c2cnn(C(=O)CNc3ccc(F)cc3)c2ncn1N", "note": "[Compound 4, 1-(5-Amino-4-imino-4,5-dihydro-1H-pyrazolo[3,4-d]pyrimidin-1-yl)-2-((4-fluorophenyl)amino)ethan-1-one]", "values": [
      {"measurement": "IC50", "setting": "[1]", "value": "603 ± 1.9", "unit": "nM"},
      {"measurement": "IC50", "setting": "CDK2/cyclin A2", "value": "1340 ± 21", "unit": "nM"},
      {"measurement": "IC50", "setting": "[2]", "value": "150 ± 1.5", "unit": "nM"}
    ]},
    {"smiles": "O=C(CNc1ccc(F)cc1)n1ncc2c1ncn1nc(SCC(O)CO)nc21", "note": "(stereo not drawn) [Compound 10, 1-{2-[(2,3-Dihydroxypropyl)thio]-7H-pyrazolo[4,3-e][1,2,4]triazolo[1,5-c]pyrimidin-7-yl}-2-((4-fluorophenyl)amino)ethan-1-one]", "values": [
      {"measurement": "IC50", "setting": "[1]", "value": "987 ± 2", "unit": "nM"},
      {"measurement": "IC50", "setting": "CDK2/cyclin A2", "value": "506 ± 11", "unit": "nM"},
      {"measurement": "IC50", "setting": "[2]", "value": "95 ± 1.9", "unit": "nM"},
      {"measurement": "In vitro IC50 (nM) Mean ± SD MCF-7", "setting": "[2]", "value": "potent activity"}
    ]},
    {"smiles": "CC(=O)OCC(CSc1nc2c3cnn(C(=O)CNc4ccc(F)cc4)c3ncn2n1)OC(C)=O", "note": "(stereo not drawn) [Compound 11, 3-((7-((4-Fluorophenyl)glycyl)-7H-pyrazolo[4,3-e][1,2,4]triazolo[1,5-c]pyrimidin-2-yl)thio)propane-1,2-diyl diacetate]", "values": [
      {"measurement": "IC50", "setting": "[1]", "value": "49 ± 0.17", "unit": "nM"},
      {"measurement": "In vitro IC50 (nM) Mean ± SD HepG-2", "setting": "[1]", "value": "moderate activity"},
      {"measurement": "IC50", "setting": "CDK2/cyclin A2", "value": "89 ± 5", "unit": "nM"},
      {"measurement": "IC50", "setting": "[2]", "value": "63 ± 1.1", "unit": "nM"},
      {"measurement": "In vitro IC50 (nM) Mean ± SD MCF-7", "setting": "[2]", "value": "good activity"},
      {"measurement": "In vitro IC50 (nM) Mean ± SD HCT-116", "setting": "[3]", "value": "most potent cytotoxic results"}
    ]},
    {"smiles": "N=c1c2cnn(C(=O)CNc3ccc(F)cc3)c2ncn1N[C@@H]1OC[C@@H](O)[C@H](O)[C@H]1O", "note": "[Compound 6, 1-(4-Imino-5-((ß-D-xylopyranosyl)amino)-4,5-dihydro-1H-pyrazolo[3,4-d]pyrimidin-1-yl)-2-((4-fluorophenyl)amino)ethan-1-one]", "values": [
      {"measurement": "IC50", "setting": "[1]", "value": "98 ± 0.78", "unit": "nM"},
      {"measurement": "IC50", "setting": "CDK2/cyclin A2", "value": "559 ± 13", "unit": "nM"},
      {"measurement": "IC50", "setting": "[2]", "value": "621 ± 2.7", "unit": "nM"}
    ]},
    {"smiles": "CNC(=O)c1cc(Oc2ccc(NC(=O)Nc3ccc(Cl)c(C(F)(F)F)c3)cc2)ccn1", "note": "[Sorafenib, reference compound]", "values": [
      {"measurement": "IC50", "setting": "[1]", "value": "19 ± 0.29", "unit": "nM"},
      {"measurement": "IC50", "setting": "[2]", "value": "144 ± 0.47", "unit": "nM"}
    ]},
    {"smiles": "CC(=O)OCCSc1nc2c3cnn(C(=O)CNc4ccc(F)cc4)c3ncn2n1", "note": "[Compound 13, 2-((7-((4-Fluorophenyl)glycyl)-7H-pyrazolo[4,3-e][1,2,4]triazolo[1,5-c]pyrimidin-2-yl)thio)ethyl acetate]", "values": [
      {"measurement": "IC50", "setting": "[1]", "value": "74 ± 1.1", "unit": "nM"},
      {"measurement": "In vitro IC50 (nM) Mean ± SD HepG-2", "setting": "[1]", "value": "moderate activity"},
      {"measurement": "IC50", "setting": "CDK2/cyclin A2", "value": "130 ± 7", "unit": "nM"},
      {"measurement": "IC50", "setting": "[2]", "value": "55 ± 0.43", "unit": "nM"},
      {"measurement": "In vitro IC50 (nM) Mean ± SD MCF-7", "setting": "[2]", "value": "good activity"},
      {"measurement": "In vitro IC50 (nM) Mean ± SD HCT-116", "setting": "[3]", "value": "most potent cytotoxic results"}
    ]},
    {"smiles": "O=C(CNc1ccc(F)cc1)n1ncc2c1ncn1[nH]c(=S)nc21", "note": "[Compound 7, 1-(2-Thioxo-2,3-dihydro-7H-pyrazolo[4,3-e][1,2,4]triazolo[1,5-c]pyrimidin-7-yl)-2-((4-fluorophenyl)amino)ethan-1-one]", "values": [
      {"measurement": "IC50", "setting": "[1]", "value": "63 ± 0.11", "unit": "nM"},
      {"measurement": "In vitro IC50 (nM) Mean ± SD HepG-2", "setting": "[1]", "value": "moderate activity"},
      {"measurement": "IC50", "setting": "CDK2/cyclin A2", "value": "274 ± 5", "unit": "nM"},
      {"measurement": "IC50", "setting": "[2]", "value": "937 ± 0.93", "unit": "nM"}
    ]},
    {"smiles": "COC(CSc1nc2c3cnn(C(=O)CNc4ccc(F)cc4)c3ncn2n1)OC", "note": "[Compound 9, 1-(2-((2,2-Dimethoxyethyl)thio)-7H-pyrazolo[4,3-e][1,2,4]triazolo[1,5-c]pyrimidin-7-yl)-2-((4-fluorophenyl)amino)ethan-1-one]", "values": [
      {"measurement": "IC50", "setting": "[1]", "value": "690 ± 1.6", "unit": "nM"},
      {"measurement": "In vitro IC50 (nM) Mean ± SD HepG-2", "setting": "[1]", "value": "no activity"},
      {"measurement": "IC50", "setting": "CDK2/cyclin A2", "value": "881 ± 49", "unit": "nM"},
      {"measurement": "IC50", "setting": "[2]", "value": "60 ± 0.49", "unit": "nM"}
    ]},
    {"smiles": "N=c1c2cnn(C(=O)CNc3ccc(F)cc3)c2ncn1N[C@@H]1O[C@H](CO)[C@@H](O)[C@H](O)[C@H]1O", "note": "[Compound 5, 1-(4-Imino-5-((ß-D-glucopyranosyl)amino)-4,5-dihydro-1H-pyrazolo[3,4-d]pyrimidin-1-yl)-2-((4-fluorophenyl)amino)ethan-1-one]", "values": [
      {"measurement": "IC50", "setting": "[1]", "value": "690 ± 0.48", "unit": "nM"},
      {"measurement": "IC50", "setting": "CDK2/cyclin A2", "value": "2050 ± 50", "unit": "nM"},
      {"measurement": "IC50", "setting": "[2]", "value": "663 ± 1.4", "unit": "nM"}
    ]},
    {"smiles": "O=C(CNc1ccc(F)cc1)n1ncc2c1ncn1nc(SCCO)nc21", "note": "[Compound 12, 1-(2-((2-Hydroxyethyl)thio)-7H-pyrazolo[4,3-e][1,2,4]triazolo[1,5-c]pyrimidin-7-yl)-2-((4-fluorophenyl)amino)ethan-1-one]", "values": [
      {"measurement": "IC50", "setting": "[1]", "value": "928 ± 0.97", "unit": "nM"},
      {"measurement": "In vitro IC50 (nM) Mean ± SD HepG-2", "setting": "[1]", "value": "inactive"},
      {"measurement": "IC50", "setting": "CDK2/cyclin A2", "value": "961 ± 19", "unit": "nM"},
      {"measurement": "IC50", "setting": "[2]", "value": "613 ± 0.33", "unit": "nM"},
      {"measurement": "In vitro IC50 (nM) Mean ± SD MCF-7", "setting": "[2]", "value": "inactive"},
      {"measurement": "In vitro IC50 (nM) Mean ± SD HCT-116", "setting": "[3]", "value": "inactive"}
    ]},
    {"smiles": "N#CCSc1nc2c3cnn(C(=O)CNc4ccc(F)cc4)c3ncn2n1", "note": "[Compound 8, 2-((7-((4-Fluorophenyl)glycyl)-7H-pyrazolo[4,3-e][1,2,4]triazolo[1,5-c]pyrimidin-2-yl)thio)acetonitrile]", "values": [
      {"measurement": "IC50", "setting": "[1]", "value": "8 ± 0.34", "unit": "nM"},
      {"measurement": "In vitro IC50 (nM) Mean ± SD HepG-2", "setting": "[1]", "value": "potent activity"},
      {"measurement": "IC50", "setting": "CDK2/cyclin A2", "value": "1060 ± 59", "unit": "nM"},
      {"measurement": "IC50", "setting": "[2]", "value": "72 ± 0.53", "unit": "nM"}
    ]}
  ]
}
